Results from US6492397B1, “N-arylheteroarylalkyl imidazol-2-one compounds for treatment of arteriosclerosis” (Pharmacia Corporation, priority 1991, dated 2002).
Like-named read-outs stand apart in the source and are kept apart here.

How the values were obtained:
[1] = molecular target: smooth muscle angiotensin II receptor; assay: Assay A: Angiotensin II Binding Activity (125I-angiotensin II displacement, rat uterine membrane preparation); conditions: 50% displacement of specifically bound 125I-AII, rat uterine membranes, 25° C., 60 min
Description: Assay A: Angiotensin II Binding Activity
Compounds of the invention were tested for ability to bind to the smooth muscle angiotensin II receptor using a rat uterine membrane preparation. […] Other chemicals were obtained from Sigma Chemical Co. This assay was carried out according to the method of Douglas et al [Endocrinology, 106, 120-124 (1980)]. Rat uterine membranes were prepared from fresh tissue. All procedures were carried out at 4° C. Uteri were stripped of fat and homogenized in phosphate-buffered saline at pH 7.4 containing 5 mM EDTA. The homogenate was centrifuged at 1500×g for 20 min., and the supernatant was recentrifuged at 100,000×g for 60 min. The pellet was resuspended in buffer consisting of 2 mM EDTA and 50 mM Tris-HCl (pH 7.5) to a final protein concentration of 4 mg/ml. Assay tubes were charged with 0.25 ml of a solution containing 5 mM MgCl2, 2 mM EDTA, 0.5% bovine serum albumin, 50 mM Tris-HCl, pH 7.5 and […] (approximately 10^5 cpm) in the absence or in the presence of unlabelled ligand. The reaction was initiated by the addition of membrane protein and the mixture was incubated at 25° C. for 60 min. The incubation was terminated with ice-cold 50 mM Tris-HCl (pH 7.5) and the mixture was filtered to separate membrane-bound labelled peptide from the free ligand. The incubation tube and filter were washed with ice-cold buffer. Filters were assayed for radioactivity in a Micromedic gamma counter. Nonspecific binding was defined as binding in the presence of 10 μM of unlabelled AII. Specific binding was calculated as total binding minus nonspecific binding. […] Binding data were analyzed by a nonlinear least-squares curve fitting program.

[2] = tested on: pressor response to AII; assay: Assay C: In Vivo Intragastric Pressor Assay Response for AII Antagonists; parameters: species or system rat; conditions: for Assay C Duration: Dose: 3 mg/kg (i.g.), Sprague-Dawley rats, AII challenges up to 180 minutes after gavage; for inhibition in vivo at 3 mg/kg: Rattus norvegicus, po
Description: Assay C: In Vivo Intragastric Pressor Assay Response for AII Antagonists
Male Sprague-Dawley rats weighing 225-300 grams were anesthetized with methohexital (30 mg/kg, i.p.) and catheters were implanted into the femoral artery and vein. The catheters were tunneled subcutaneously to exit dorsally, posterior to the head and between the scapulae. The catheters were filled with heparin (1000 units/ml of saline). The rats were returned to their cage and allowed regular rat chow and water ad libitum. After full recovery from surgery (3-4 days), rats were placed in Lucite holders and the arterial line was connected to a pressure transducer. Arterial pressure was recorded on a Gould polygraph (mmHg). Angiotensin II was administered as a 30 ng/kg bolus via the venous catheter delivered in a 50 μl volume with a 0.2 ml saline flush. The pressor response in mm Hg was measured by the difference from pre-injection arterial pressure to the maximum pressure achieved. The AII injection was repeated every 10 minutes until three consecutive injections yielded responses within 4 mmHg of each other. These three responses were then averaged and represented the control response to AII. The test compound was suspended in 0.5% methylcellulose in water and was administered by gavage. The volume administered was 2 ml/kg body weight. The standard dose was 3 mg/kg. Angiotensin II bolus injections were given at 30, 45, 60, 75, 120, 150, and 180 minutes after gavage. The pressor response to AII was measured at each time point. The rats were then returned to their cage for future testing. A minimum of 3 days was allowed between tests. Percent inhibition was calculated for each time point following gavage by the following formula: [(Control Response−Response at time point)/Control Response]×100.

[3] = tested on: rabbit aortic rings; assay: Assay B: In Vitro Vascular Smooth Muscle Response for AII (antagonist activity in rabbit aortic rings); type: cell-based; conditions: Oryctolagus cuniculus, test antagonist at 10^-5 M, AII contraction, read-out: Assay B pA2 (converted)
Description: Assay B: In Vitro Vascular Smooth Muscle-Response for AII
The compounds of the invention were tested for antagonist activity in rabbit aortic rings. Male New Zealand white rabbits (2-2.5 kg) were sacrificed using an overdose of pentobarbital and exsanguinated via the carotid arteries. The thoracic aorta was removed, cleaned of adherent fat and connective tissue and then cut into 3-mm ring segments. The endothelium was removed from the rings by gently sliding a rolled-up piece of filter paper into the vessel lumen. The rings were then mounted in a water-jacketed tissue bath, maintained at 37° C., between moveable and fixed ends of a stainless steel wire with the moveable end attached to an FT03 Grass transducer coupled to a Model 7D Grass Polygraph for recording isometric force responses. The bath was filled with 20 ml of oxygenated (95% oxygen/5% carbon dioxide) Krebs solution of the following composition (mM): 130 NaCl, 15 NaHCO3, […], 1.2 NaH2PO4, 1.2 MgSO4, 2.5 CaCl2, and 11.4 glucose. The preparations were equilibrated for one hour before approximately one gram of passive tension was placed on the rings. Angiotensin II concentration-response curves were then recorded (3×10^−10 to 1×10^−5 M). Each concentration of AII was allowed to elicit its maximal contraction, and then AII was washed out repeatedly for 30 minutes before rechallenging with a higher concentration of AII. Aorta rings were exposed to the test antagonist at 10^−5 M for 5 minutes before challenging with AII. Adjacent segments of the same aorta ring were used for all concentration-response curves in the presence or absence of the test antagonist. The effectiveness of the test compound was expressed in terms of pA2 values and were calculated according to H. O. Schild [Br. J. Pharmacol. Chemother., 2,189-206 (1947)]. The PA2 value is the concentration of the antagonist which increases the EC50 value for AII by a factor of two. Each test antagonist was evaluated in aorta rings from two rabbits.

[4] = first value of the pair (aorta rings from two rabbits)
[5] = second value of the pair (aorta rings from two rabbits)

`CCCCc1cn(-c2ccccc2)c(=O)n1Cc1ccc(-c2ccccc2-c2nnn[nH]2)nc1` [Example 31, 1-phenyl-4-butyl-1,3-dihydro-3-[[6-[2-(1H-tetrazol-5-yl)phenyl]-3-pyridinyl]methyl]-2H-imidazol-2-one] gave an IC50 [1] of 45 nM.

Work on `CCCCc1cn(C23CC4CC(CC(C4)C2)C3)c(=O)n1Cc1ccc(-c2ccccc2-c2nnn[nH]2)nc1` [Example 30, 1-(1-adamantyl)-4-butyl-1,3-dihydro-3-[[6-[2-(1H-tetrazol-5-yl)phenyl]-3-pyridinyl]methyl]-2H-imidazol-2-one] yielded an IC50 [1] of 65 nM.

`CCCCc1cn(C2C3CC4CC(C3)CC2C4)c(=O)n1Cc1ccc(-c2ccccc2-c2nnn[nH]2)nc1` (centres unmarked) [Example 29, 1-(2-adamantyl)-4-butyl-1,3-dihydro-3-[[6-[2-(1H-tetrazol-5-yl)phenyl]-3-pyridinyl]methyl]-2H-imidazol-2-one] gave an IC50 [1] of 51 nM.

In the case of `CCCCn1cc(CCC2CC2)n(Cc2ccc(-c3ccccc3-c3nnn[nH]3)nc2)c1=O` [Example 9, 1-butyl-4-(2-cyclopropylethyl)-1,3-dihydro-3-[[6-[2-(1H-tetrazol-5-yl)phenyl]-3-pyridinyl]methyl]-2H-imidazol-2-one], the “Assay C Duration” value [2] is reported as 180 min, the inhibition in vivo at 3 mg/kg [2] is reported as 10% and the IC50 [1] is reported as 11 nM. For the same molecule, the Kb [3, 4] was 0.537 nM and the Kb [3, 5] was 1.35 nM.

With `CCCCn1cc(C2CCCCC2)n(Cc2ccc(-c3ccccc3-c3nnn[nH]3)nc2)c1=O` [Example 7, 1-butyl-4-cyclohexyl-1,3-dihydro-3-[[6-[2-(1H-tetrazol-5-yl)phenyl]-3-pyridinyl]methyl]-2H-imidazol-2-one] the “Assay C Duration” value [2] was 180 min, the inhibition in vivo at 3 mg/kg [2] was 10% and the IC50 [1] was 81 nM. For the same molecule, the Kb [3, 4] was 17.8 nM and the Kb [3, 5] was 17.4 nM.

`CCCCc1cn(-c2ccccc2C(C)C)c(=O)n1Cc1ccc(-c2ccccc2-c2nnn[nH]2)nc1` [Example 35, 1-(2-isopropylphenyl)-4-butyl-1,3-dihydro-3-[[6-[2-(1H-tetrazol-5-yl)phenyl]-3-pyridinyl]methyl]-2H-imidazol-2-one] gave an IC50 [1] of 14 nM.

`CCCCc1cn(CCC2=CCCC2)c(=O)n1Cc1ccc(-c2ccccc2-c2nnn[nH]2)nc1` [Example 28, 1-[2-(cyclopenten-1-yl)ethyl]-4-butyl-1,3-dihydro-3-[[6-[2-(1H-tetrazol-5-yl)phenyl]-3-pyridinyl]methyl]-2H-imidazol-2-one] was tested, and the “Assay C Duration” value [2] was 180 min, the inhibition in vivo at 3 mg/kg [2] was 15% and the IC50 [1] was 23 nM. For the same molecule, the Kb [3, 4] was 1.41 nM and the Kb [3, 5] was 5.62 nM.

With `CCCCc1cn(-c2ccccc2OC)c(=O)n1Cc1ccc(-c2ccccc2-c2nnn[nH]2)nc1` [Example 34, 1-(2-methoxyphenyl)-4-butyl-1,3-dihydro-3-[[6-[2-(1H-tetrazol-5-yl)phenyl]-3-pyridinyl]methyl]-2H-imidazol-2-one] the IC50 [1] was 9 nM.

Molecule `CCCn1cc(CC(C)C)n(Cc2ccc(-c3ccccc3-c3nnn[nH]3)nc2)c1=O` [Example 3, 1-propyl-4-isobutyl-1,3-dihydro-3-[[6-[2-(1H-tetrazol-5-yl)phenyl]-3-pyridinyl]methyl]-2H-imidazol-2-one] has an IC50 [1] of 770 nM, a Kb [3, 4] of 34.7 nM and a Kb [3, 5] of 112 nM.

`CCCCc1cn(C(C)(C)C)c(=O)n1Cc1ccc(-c2ccccc2-c2nnn[nH]2)nc1` [Example 17, 1-tertbutyl-4-butyl-1,3-dihydro-3-[[6-[2-(1H-tetrazol-5-yl)phenyl]-3-pyridinyl]methyl]-2H-imidazol-2-one] was tested, and the “Assay C Duration” value [2] was 180 min, the inhibition in vivo at 3 mg/kg [2] was 10% and the IC50 [1] was 17 nM. For the same molecule, the Kb [3, 4] was 1.66 nM and the Kb [3, 5] was 2.34 nM.

Molecule `CCCCc1cn(-c2c(C)cccc2C)c(=O)n1Cc1ccc(-c2ccccc2-c2nnn[nH]2)nc1` [Example 38, 1-(2,6-dimethylphenyl)-4-butyl-1,3-dihydro-3-[[6-[2-(1H-tetrazol-5-yl)phenyl]-3-pyridinyl]methyl]-2H-imidazol-2-one] has an IC50 [1] of 5 nM.

In the case of `CCCCc1cn(CCC2CCCC2)c(=O)n1Cc1ccc(-c2ccccc2-c2nnn[nH]2)nc1` [Example 27, 1-(2-cyclopentylethyl)-4-butyl-1,3-dihydro-3-[[6-[2-(1H-tetrazol-5-yl)phenyl]-3-pyridinyl]methyl]-2H-imidazol-2-one], the “Assay C Duration” value [2] is reported as greater than 180 min, the inhibition in vivo at 3 mg/kg [2] is reported as 35% and the IC50 [1] is reported as 18 nM. For the same molecule, the Kb [3, 4] was 1.82 nM and the Kb [3, 5] was 2.14 nM.

`CCCc1cn(CCC)c(=O)n1Cc1ccc(-c2ccccc2-c2nnn[nH]2)nc1` [Example 2, 1,4-dipropyl-1,3-dihydro-3-[[6-[2-(1H-tetrazol-5-yl)phenyl]-3-pyridinyl]methyl]-2H-imidazol-2-one] was tested, and the “Assay C Duration” value [2] was 180 min, the inhibition in vivo at 3 mg/kg [2] was 25% and the IC50 [1] was 38 nM. For the same molecule, the Kb [3, 4] was 7.41 nM and the Kb [3, 5] was 39.8 nM.

`CCCCc1cn(C(C)C)c(=O)n1Cc1ccc(-c2ccccc2-c2nnn[nH]2)nc1` [Example 16, 1-isopropyl-4-butyl-1,3-dihydro-3-[[6-[2-(1H-tetrazol-5-yl)phenyl]-3-pyridinyl]methyl]-2H-imidazol-2-one] was tested, and the “Assay C Duration” value [2] was greater than 180 min, the inhibition in vivo at 3 mg/kg [2] was 45% and the IC50 [1] was 20 nM. The Kb [3, 4] was 3.8 nM and the Kb [3, 5] was 1.7 nM.

`CCCCc1cn(C2CCCC2)c(=O)n1Cc1ccc(-c2ccccc2-c2nnn[nH]2)nc1` [Example 23, 1-cyclopentyl-4-butyl-1,3-dihydro-3-[[6-[2-(1H-tetrazol-5-yl)phenyl]-3-pyridinyl]methyl]-2H-imidazol-2-one] gave an IC50 [1] of 99 nM, a Kb [3, 4] of 0.912 nM and a Kb [3, 5] of 2.51 nM.

Molecule `CCCCn1cc(CC(C)C)n(Cc2ccc(-c3ccccc3-c3nnn[nH]3)nc2)c1=O` [Example 4, 1-butyl-4-isobutyl-1,3-dihydro-3-[[6-[2-(1H-tetrazol-5-yl)phenyl]-3-pyridinyl]methyl]-2H-imidazol-2-one] has an IC50 [1] of 140 nM, a Kb [3, 4] of 19.1 nM and a Kb [3, 5] of 81.3 nM.

With `CCCCn1cc(CCC(C)C)n(Cc2ccc(-c3ccccc3-c3nnn[nH]3)nc2)c1=O` [Example 5, 1-butyl-4-isopentyl-1,3-dihydro-3-[[6-[2-(1H-tetrazol-5-yl)phenyl]-3-pyridinyl]methyl]-2H-imidazol-2-one] the IC50 [1] was 29 nM, the Kb [3, 4] was 2.29 nM and the Kb [3, 5] was 5.89 nM.

In the case of `CCCCc1cn(-c2ccccc2C)c(=O)n1Cc1ccc(-c2ccccc2-c2nnn[nH]2)nc1` [Example 33, 1-(2-methylphenyl)-4-butyl-1,3-dihydro-3-[[6-[2-(1H-tetrazol-5-yl)phenyl]-3-pyridinyl]methyl]-2H-imidazol-2-one], the “Assay C Duration” value [2] is reported as greater than 180 min, the inhibition in vivo at 3 mg/kg [2] is reported as 65% and the IC50 [1] is reported as 9.4 nM.
